Data as given in ChEMBL document CHEMBL1123274, “Azasteroids: structure-activity relationships for inhibition of 5 alpha-reductase and of androgen receptor binding” (J Med Chem, 1986).

How the values were obtained:
[1] = target: T1, Steroid 5-alpha-reductase (Rattus norvegicus, UniProt P24008+P31214); assay: In vitro inhibitory activity against rat prostatic steroid 5-alpha-reductase; format: protein assay
T1 sequence (P24008 whole entry): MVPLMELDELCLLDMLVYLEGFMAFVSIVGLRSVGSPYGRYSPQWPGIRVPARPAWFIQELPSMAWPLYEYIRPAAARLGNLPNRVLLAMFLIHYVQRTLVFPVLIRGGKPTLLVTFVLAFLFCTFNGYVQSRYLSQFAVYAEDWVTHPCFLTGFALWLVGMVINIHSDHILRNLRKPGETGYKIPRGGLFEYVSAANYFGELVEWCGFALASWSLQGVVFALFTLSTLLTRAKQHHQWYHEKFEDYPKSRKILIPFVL
T1 sequence (P31214 whole entry): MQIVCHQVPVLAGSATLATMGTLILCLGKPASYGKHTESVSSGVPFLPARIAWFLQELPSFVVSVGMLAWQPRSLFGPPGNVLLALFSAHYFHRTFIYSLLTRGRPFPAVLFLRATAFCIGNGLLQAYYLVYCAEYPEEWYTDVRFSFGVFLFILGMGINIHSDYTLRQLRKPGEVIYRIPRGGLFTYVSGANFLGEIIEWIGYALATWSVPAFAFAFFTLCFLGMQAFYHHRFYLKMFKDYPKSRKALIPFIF

Androgen receptor = target: T2, Androgen receptor (Rattus norvegicus, UniProt P15207); assay: In vitro antagonist activity against rat prostatic androgen receptor (AR)
T2 sequence (P15207 whole entry): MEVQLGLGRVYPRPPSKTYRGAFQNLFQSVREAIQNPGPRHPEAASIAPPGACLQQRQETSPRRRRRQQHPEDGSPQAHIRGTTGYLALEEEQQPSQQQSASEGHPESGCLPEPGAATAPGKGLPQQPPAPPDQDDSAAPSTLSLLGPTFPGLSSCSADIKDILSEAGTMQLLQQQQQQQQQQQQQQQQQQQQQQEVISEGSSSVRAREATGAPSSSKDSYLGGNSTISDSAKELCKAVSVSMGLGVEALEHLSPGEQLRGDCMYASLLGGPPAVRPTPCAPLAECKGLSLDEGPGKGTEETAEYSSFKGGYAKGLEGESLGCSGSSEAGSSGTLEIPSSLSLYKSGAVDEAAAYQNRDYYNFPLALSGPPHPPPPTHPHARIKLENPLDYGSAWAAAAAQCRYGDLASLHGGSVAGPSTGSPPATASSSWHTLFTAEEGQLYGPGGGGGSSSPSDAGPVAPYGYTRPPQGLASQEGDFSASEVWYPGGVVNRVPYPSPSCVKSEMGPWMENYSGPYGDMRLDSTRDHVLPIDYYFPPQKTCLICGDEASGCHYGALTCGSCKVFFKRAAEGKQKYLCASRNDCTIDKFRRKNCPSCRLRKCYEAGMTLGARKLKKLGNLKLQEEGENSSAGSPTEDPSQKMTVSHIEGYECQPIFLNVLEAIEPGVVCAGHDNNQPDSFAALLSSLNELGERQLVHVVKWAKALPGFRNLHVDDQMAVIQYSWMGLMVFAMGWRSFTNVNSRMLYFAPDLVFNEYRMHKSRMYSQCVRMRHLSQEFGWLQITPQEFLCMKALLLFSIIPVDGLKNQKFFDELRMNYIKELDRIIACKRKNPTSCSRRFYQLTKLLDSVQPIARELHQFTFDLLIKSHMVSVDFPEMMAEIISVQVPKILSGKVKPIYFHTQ

SMILES	IC50 [1]	IC50 (Androgen receptor)
CC(=O)[C@H]1[C@@H](C)C[C@H]2[C@@H]3CCC4N(C)C(=O)CC[C@]4(C)[C@H]3CC[C@@]21C (stereo partly specified)	0.016 µM	8.6 µM
CN1C(=O)CC[C@@]2(C)C1CC[C@H]1[C@@H]3CC[C@H](C(=O)NCCO)[C@@]3(C)CC[C@@H]12 (stereo partly specified)	0.093 µM	1.7 µM
CCN(CC)C(=O)[C@H]1CC[C@H]2[C@@H]3CC[C@H]4N(C)/C(=N/O)CC[C@]4(C)[C@H]3CC[C@]12C	0.1 µM	0.54 µM
CC(C)(C)NC(=O)[C@H]1CC[C@H]2[C@@H]3CCC4NC(=O)CC[C@]4(C)[C@H]3CC[C@]12C (stereo partly specified)	0.0063 µM	> 100 µM
CC(CCC(=O)[O-])[C@H]1CC[C@H]2[C@@H]3CCC4N(C)C(=O)CC[C@]4(C)[C@H]3CC[C@]12C.[Na+] (stereo partly specified)	0.0036 µM	21 µM
CCN(CC)C(=O)[C@H]1CC[C@H]2[C@@H]3CC[C@H]4N(C)C(=O)[C@@H]5C[C@@H]5[C@]4(C)[C@H]3CC[C@]12C	0.02 µM	2.7 µM
CCN(CC)C(=O)[C@H]1CC[C@H]2[C@@H]3CC[C@H]4N(C)C(=O)C(=O)C[C@]4(C)[C@H]3CC[C@]12C	0.34 µM	50 µM
CN1C(=O)CC[C@@]2(C)C1CC[C@H]1[C@@H]3CC[C@H](C(=O)[O-])[C@@]3(C)CC[C@@H]12.[Na+] (stereo partly specified)	0.037 µM	9.1 µM
CCC(C)C(=O)[C@H]1CC[C@H]2[C@@H]3CCC4NC(=O)C=C[C@]4(C)[C@H]3CC[C@]12C (stereo partly specified)	0.05 µM	> 100 µM
C[C@]12C=CC(=O)NC1CC[C@@H]1[C@@H]2CC[C@@]2(C)[C@H]1CC[C@@]21CCCO1 (stereo partly specified)	0.43 µM	1.5 µM
CC(C)N(C(=O)[C@H]1CC[C@H]2[C@@H]3CCC4N(C)C(=O)C=C[C@]4(C)[C@H]3CC[C@]12C)C(C)C (stereo partly specified)	0.43 µM	10 µM
CCN(CC)C(=O)[C@H]1CC[C@H]2[C@@H]3CCC4N(C)C(=O)C=C(C#N)[C@]4(C)[C@H]3CC[C@]12C (stereo partly specified)	> 1 µM	> 10 µM
C[C@]12CCC(=O)NC1CC[C@@H]1[C@@H]2CC[C@@]2(C)[C@H]1CC[C@@]21CCCO1 (stereo partly specified)	0.093 µM	2.5 µM
CCN(CC)C(=O)[C@H]1CC[C@H]2[C@@H]3CC[C@H]4N(C)C(=O)[C@H](O)C[C@]4(C)[C@H]3CC[C@]12C	0.46 µM	3.2 µM
CCN1C(=O)CC[C@@]2(C)C1CC[C@@H]1[C@@H]2CC[C@@]2(C)[C@H]1CC[C@@]21CCCO1 (stereo partly specified)	1.17 µM	13 µM
CCN(CC)C(=O)[C@H]1CC[C@H]2[C@@H]3CC=C4N(N)C(=O)CC[C@]4(C)[C@H]3CC[C@]12C	0.036 µM	5.4 µM
CCN(CC)C(=O)[C@H]1CCC[C@H]2[C@@H]3CC[C@H]4N(C)C(=O)NC[C@]4(C)[C@H]3CC[C@]12C	0.5 µM	1.6 µM
CC(=O)N[C@H]1CC[C@H]2[C@@H]3CCC4N(C)C(=O)CC[C@]4(C)[C@H]3CC[C@]12C (stereo partly specified)	0.27 µM	1.4 µM
CC(C(=O)[O-])[C@H]1CC[C@H]2[C@@H]3CC=C4N(C)C(=O)CC[C@]4(C)[C@H]3CC[C@]12C.[Na+] (stereo partly specified)	0.013 µM	25 µM
CCCCCCCCNC(=O)[C@H]1CC[C@H]2[C@@H]3CCC4NC(=O)CC[C@]4(C)[C@H]3CC[C@]12C (stereo partly specified)	0.00013 µM	5.2 µM
CCN(CC)C(=O)[C@H]1CC[C@H]2[C@@H]3CC[C@H]4N(NC=O)C(=O)CC[C@]4(C)[C@H]3CC[C@]12C	0.4 µM	> 10 µM
CC(C)N(C(=O)[C@H]1CC[C@H]2[C@@H]3CCC4NC(=O)C=C[C@]4(C)[C@H]3CC[C@]12C)C(C)C (stereo partly specified)	0.079 µM	18 µM
CCN(CC)C(=O)[C@H]1CCC[C@H]2[C@@H]3CC[C@H]4N(C)C(=O)OC[C@]4(C)[C@H]3CC[C@]12C	0.5 µM	3.7 µM
CCN(CC)C(=O)[C@H]1CC[C@H]2[C@@H]3CC[C@H]4N(C)C(=O)C[C@H](C)[C@]4(C)[C@H]3CC[C@]12C	0.086 µM	16 µM
CCC(C)C(=O)[C@H]1CC[C@H]2[C@@H]3CCC4NC(=O)CC[C@]4(C)[C@H]3CC[C@]12C (stereo partly specified)	0.0012 µM	> 100 µM
CCCCCCCCN(CCCCCCCC)C(=O)[C@H]1CC[C@H]2[C@@H]3CCC4N(C)C(=O)CC[C@]4(C)[C@H]3CC[C@]12C (stereo partly specified)	0.033 µM	46 µM
CNC(=O)[C@H]1CC[C@H]2[C@@H]3CC=C4N(C)C(=O)CC[C@]4(C)[C@H]3CC[C@]12C	0.14 µM	0.4 µM
CC(C)N(C(=O)[C@H]1CC[C@H]2[C@@H]3CC[C@H]4N(C)C(=O)CC[C@]4(C)[C@H]3CC[C@]12C)C(C)C	0.0035 µM	14 µM

Other lines, results leading:

IC50 [1]	IC50 (Androgen receptor)	SMILES
0.012 µM	1.1 µM	CCNC(=O)[C@H]1CC[C@H]2[C@@H]3CCC4N(C)C(=O)CC[C@]4(C)[C@H]3CC[C@]12C (stereo partly specified)
0.0034 µM	0.29 µM	CC(=O)[C@H]1[C@H](C)C[C@H]2[C@@H]3CCC4N(C)C(=O)CC[C@]4(C)[C@H]3CC[C@@]21C (stereo partly specified)
0.022 µM	0.96 µM	COC(=O)C(C)[C@H]1CC[C@H]2[C@@H]3CCC4N(C)C(=O)CC[C@]4(C)[C@H]3CC[C@]12C (stereo partly specified)
0.0019 µM	0.42 µM	CCC(C)C(=O)[C@H]1CC[C@H]2[C@@H]3CCC4N(C)C(=O)CC[C@]4(C)[C@H]3CC[C@]12C (stereo partly specified)
0.0046 µM	0.5 µM	C[C@H]1CC2N(C)C(=O)CC[C@]2(C)[C@H]2CC[C@@]3(C)[C@@H](CC[C@@]34CCCO4)[C@H]12 (stereo partly specified)
0.00021 µM	0.13 µM	CCCCCCCCNC(=O)[C@H]1CC[C@H]2[C@@H]3CCC4N(C)C(=O)CC[C@]4(C)[C@H]3CC[C@]12C (stereo partly specified)
0.22 µM	0.19 µM	CCN(CC)C(=O)[C@H]1CC[C@H]2[C@@H]3CC=C4N(O)C(=O)CC[C@]4(C)[C@H]3CC[C@]12C
0.017 µM	0.44 µM	CN1C(=O)CC[C@@]2(C)C1CC[C@H]1[C@@H]3CC[C@H](C(N)=O)[C@@]3(C)CC[C@@H]12 (stereo partly specified)
0.00056 µM	0.68 µM	CN1C(=O)CC[C@@]2(C)C1CC[C@H]1[C@@H]3CC[C@H](C(=O)NC(C)(C)C)[C@@]3(C)CC[C@@H]12 (stereo partly specified)
0.43 µM	0.11 µM	CN1C(=O)C=C[C@@]2(C)C1CC[C@@H]1[C@@H]2CC[C@@]2(C)[C@H]1CC[C@@]21CCCO1 (stereo partly specified)
0.0046 µM	0.79 µM	COC(CNC(=O)[C@H]1CC[C@H]2[C@@H]3CCC4N(C)C(=O)CC[C@]4(C)[C@H]3CC[C@]12C)OC (stereo partly specified)
0.0068 µM	0.066 µM	CCOC(=O)C[C@H]1CC[C@H]2[C@@H]3CC[C@H]4N(C)C(=O)CC[C@]4(C)[C@H]3CC[C@]12C
0.038 µM	1.1 µM	CNC(=O)[C@H]1CC[C@H]2[C@@H]3CCC4N(C)C(=O)CC[C@]4(C)[C@H]3CC[C@]12C (stereo partly specified)
0.0079 µM	0.56 µM	CCN(CC)C(=O)C[C@H]1CC[C@H]2[C@@H]3CCC4N(C)C(=O)CC[C@]4(C)[C@H]3CC[C@]12C (stereo partly specified)
0.12 µM	0.064 µM	CCC(C)C(=O)[C@H]1CC[C@H]2[C@@H]3CCC4N(C)C(=O)C=C[C@]4(C)[C@H]3CC[C@]12C (stereo partly specified)
